# Biological target: Neuraminidase (NA) of A/Bethesda/956/2006, NA-R292K (Influenza A virus, UniProt F1KL32, R292K)
# Assay type: biochemical, influenza A(H3N2) virus
compound,measurement,setting,value
"CCC(CC)[C@H](NC(C)=O)[C@@H]1[C@H](O)[C@@H](C(=O)O)C[C@H]1N=C(N)N [Peramivir, peramivir]",Fold-Difference of IC50 compared with the IC50 of WT virus,,16.27 ± 0.89 (71) fold
same,IC50,"read-out: IC50, nM ± SD",16.3 nM
